Laboratory results published in patent EP0179667B1, “N6-substituted adenosines” (priority 1984, dated 1986).

Tests used:
Swiss-Webster male mice [1] = experiment: Mouse Activity and Screen Test Procedure (MAST): screen test (ST); format: in vivo; settings: one hour postinjection
adenosine A2 receptor = molecular target: T1, adenosine A2 receptor (Rattus norvegicus, UniProt P30543); experiment: Adenosine Receptor Binding - A2 Receptor Affinity (RBA2); settings: [3H]NECA, rat striatal membranes; read-out: RBA-2
T1 construct: 5 mg original tissue weight of rat weight of rat striatal membranes; tissue Pel-Freez (Rogers, Arkansas); host or cells: rat striatum, membrane preparation

Swiss-Webster male mice [2] = experiment: Mouse Activity and Screen Test Procedure (MAST): locomotor activity in actophotometer; format: in vivo; settings: one hour prior to testing

T1 sequence (P30543 whole entry): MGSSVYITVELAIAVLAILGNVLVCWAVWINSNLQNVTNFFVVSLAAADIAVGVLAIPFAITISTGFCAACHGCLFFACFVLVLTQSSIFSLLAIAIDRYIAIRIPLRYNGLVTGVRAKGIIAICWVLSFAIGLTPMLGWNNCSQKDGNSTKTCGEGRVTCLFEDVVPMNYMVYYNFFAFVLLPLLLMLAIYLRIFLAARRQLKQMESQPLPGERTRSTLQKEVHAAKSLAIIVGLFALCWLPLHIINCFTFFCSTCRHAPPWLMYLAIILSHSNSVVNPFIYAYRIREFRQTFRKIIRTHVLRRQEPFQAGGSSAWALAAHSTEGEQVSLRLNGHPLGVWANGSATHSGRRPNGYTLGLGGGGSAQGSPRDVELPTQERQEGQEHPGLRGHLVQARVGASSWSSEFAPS

- Screen test failure (Swiss-Webster male mice [1]; 0.3 mg/kg intraperitoneally): 0%
- Screen test failure (Swiss-Webster male mice [1]; 1 mg/kg intraperitoneally): 0%
- Screen test failure (Swiss-Webster male mice [1]; 3 mg/kg intraperitoneally): 11%
- Screen test failure (Swiss-Webster male mice [1]; 10 mg/kg intraperitoneally): 22%
- Screen test failure (Swiss-Webster male mice [1]; 30 mg/kg intraperitoneally): 66%
- IC50 (adenosine A2 receptor): 324 nM
Structure (SMILES): COc1cccc2c1CCCC2Nc1ncnc2c1ncn2[C@@H]1O[C@H](CO)[C@@H](O)[C@H]1O (some centres unmarked) [Example 7, N^6-[5-Methoxy-1-aminotetralin]-adenosine]
- Inhibition of mouse locomotor activity (Swiss-Webster male mice [2]; 0.3 mg/kg intraperitoneally): 7%
- Inhibition of mouse locomotor activity (Swiss-Webster male mice [2]; 1 mg/kg intraperitoneally): 22%
- Inhibition of mouse locomotor activity (Swiss-Webster male mice [2]; 3 mg/kg intraperitoneally): 91%
- Inhibition of mouse locomotor activity (Swiss-Webster male mice [2]; 10 mg/kg intraperitoneally): 97%
- Inhibition of mouse locomotor activity (Swiss-Webster male mice [2]; 30 mg/kg intraperitoneally): 99%
